For experiment [1], the target named is T1, FKBP12 (Candida albicans, UniProt C4YFI3+C4YS24+P28870).
T1 construct: gene RBP1; biotinylated (Avi-tagged) FKBP12; with CnA-CnB-calmodulin
As to the kind of experiment: BLI, compound-mediated ternary complex formation, […] compound. Format: binding.

In experiment [2] the test system is T2, Cryptococcus neoformans (H99).
T2 construct: H99
As to the kind of experiment: microbe, parasite or virus in culture. To be noted: inhibitor. Also noted: CLSI M27-A3 broth microdilution in RPMI 1640 at 37 C, growth inhibition of C. neoformans (MIC). Here is the method:
In vitro antifungal activities of FK506, FK520, and analogs were assessed in RPMI 1640 (Sigma-Aldrich) for all strains tested. MICs/minimum effective concentrations (MECs) for each drug were measured using modified Clinical and Laboratory Standards Institute (CLSI) M38-A2 and M27-A3 standard in vitro antifungal susceptibility protocols. Broth microdilution assays for MIC/MEC assessment were performed as described previously ([33]). All antifungal assays with C. neoformans were performed at 37°C. Antifungal susceptibility testing for C. albicans was performed in the presence of a uniform 1 μg/mL concentration of fluconazole to sensitize the organism to calcineurin inhibition. MICs/minimum effective concentrations (MECs) were determined for each of the novel analogs against the three major human fungal pathogens, A. fumigatus, C. neoformans, and C. albicans. […] Thus, analogs of FK506 and FK520 can tolerate up to 100-fold reduction in antifungal activity and still be considered for in vivo testing. For C. neoformans, MICs were the most uniform and ranged from 0.2 to 2 μg/mL, which is between 4- and 40-fold reduced for antifungal activity. C. albicans MICs ranged from 0.2 to 6.25 μg/mL, which is between 10- and 312.5-fold reduced for activity. Despite being one of the most difficult to treat fungal infections, all six analogs were active against A. fumigatus with MECs ranging from 1 to 2 μg/mL or a 62.5- to 125-fold reduction in activity.

Values after ≈ are worked out from the molar mass of the structure shown.

T1 sequence (P28870 whole entry): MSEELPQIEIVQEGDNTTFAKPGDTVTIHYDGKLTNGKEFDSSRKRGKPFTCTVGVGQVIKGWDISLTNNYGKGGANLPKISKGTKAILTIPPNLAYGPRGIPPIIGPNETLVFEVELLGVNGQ
T1 sequence (C4YFI3 54-445): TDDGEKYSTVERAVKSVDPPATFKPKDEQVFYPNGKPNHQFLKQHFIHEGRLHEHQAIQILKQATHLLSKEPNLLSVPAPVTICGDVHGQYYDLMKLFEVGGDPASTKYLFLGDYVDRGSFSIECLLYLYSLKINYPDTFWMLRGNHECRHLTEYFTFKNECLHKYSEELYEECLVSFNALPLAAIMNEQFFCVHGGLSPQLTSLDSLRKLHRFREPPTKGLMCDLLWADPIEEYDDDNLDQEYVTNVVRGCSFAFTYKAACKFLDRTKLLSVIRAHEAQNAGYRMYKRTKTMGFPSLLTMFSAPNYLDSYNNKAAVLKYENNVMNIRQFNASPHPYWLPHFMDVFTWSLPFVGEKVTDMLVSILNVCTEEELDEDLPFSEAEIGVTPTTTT
T1 sequence (C4YS24 1-173): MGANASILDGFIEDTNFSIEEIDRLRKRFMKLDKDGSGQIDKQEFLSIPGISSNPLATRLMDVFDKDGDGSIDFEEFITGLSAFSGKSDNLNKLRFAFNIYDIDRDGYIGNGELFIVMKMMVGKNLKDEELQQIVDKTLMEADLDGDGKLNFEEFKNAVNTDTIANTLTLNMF
T1 sequence (P23286 whole entry partner): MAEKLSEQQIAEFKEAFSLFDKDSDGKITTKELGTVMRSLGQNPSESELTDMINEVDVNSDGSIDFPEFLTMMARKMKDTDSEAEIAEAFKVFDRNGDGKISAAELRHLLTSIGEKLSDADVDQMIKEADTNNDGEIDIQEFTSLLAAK

Take `CC[C@@H]1/C=C(\C)C[C@H](C)C[C@H](OC)[C@H]2O[C@@](O)(C(=O)C(=O)N3CCCC[C@H]3C(=O)O[C@H](/C(C)=C/[C@@H]3CC[C@@H](O)[C@H](OC)C3)[C@H](C)[C@@H](O)CC1=O)[C@H](C)C[C@@H]2OC` [FK520]: the “BLI, compound-mediated ternary complex formation, 10 μM compound” value in experiment [1] was “along with compounds FK506, APX879, FK520, JH-FK-02, and JH-FK-05”. In addition, the “MIC (μg/mL) against: / Cryptococcus neoformans (H99)^a” value in experiment [2] was 0.05 µg/mL (≈ 0.0631 µM).

Values taken from publication PMC9239059, “Structure-Guided Synthesis of FK506 and FK520 Analogs with Increased Selectivity Exhibit In Vivo Therapeutic Efficacy against Cryptococcus” (mBio, 2022).
